Earlier results, collected in patent publication US20240226034A1, “Use of Terpenoids and Salicylates as Anesthetics and Analgesics” (THE REGENTS OF THE UNIVERSITY OF CALIFORNIA, priority 2021, published 2024).

Tested on: rats
Conditions: antagonism of spinal GABAA receptors in rats; cited from earlier work

For `FC(F)OC(Cl)C(F)(F)F` (stereo not shown) [isoflurane], the “increase of EC50 for immobilization” value is listed as “up to 40%”.
